According to US9695155B2, “Herbicidal substituted pyrimidinyloxy benzene compounds” (E. I. DU PONT DE NEMOURS AND COMPANY, priority 2013, dated 2017):

How the values were obtained:
wheat = experiment: Test A preemergence; type: in vivo, Triticum aestivum; settings: for Wheat plant response rating: 500 g ai/ha
Method in brief: (§1)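 Injury scores run from 0, no effect, to 100, complete control, judged by eye against untreated plants roughly 10 days after treatment. Chemicals carried a surfactant in a non-phytotoxic solvent and went onto loam–sand soil preemergence or onto one- to two-leaf seedlings postemergence.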

corn = experiment: Test A postemergence; type: in vivo, Zea mays
Method in brief: as §1

morningglory [1] = experiment: Test C postemergence; type: in vivo, Ipomoea coccinea; settings: for Morningglory plant response rating / Plant response rating, Morningglory: scale 0 to 100 (0 no effect, 100 complete control)
Method in brief: (§2)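 Rated visually on 0–100 (100 = complete control) after 13–15 days under glass. Treatments went onto freshly seeded loam/sand soil or onto emerged plants at the 1- to 4-leaf stage, using a surfactant-containing solvent formulation.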

morningglory [2] = experiment: Test A preemergence; type: in vivo, Ipomoea spp.; settings: for Morningglory plant response rating: 500 g ai/ha
Method in brief: as §1

giant foxtail [3] = experiment: Test A preemergence; type: in vivo, Setaria faberii; settings: for Foxtail, Giant plant response rating: 500 g ai/ha
Method in brief: as §1

yellow nutsedge = experiment: Test C postemergence; type: in vivo, Cyperus esculentus; settings: for Nutsedge, Yellow plant response rating / Plant response rating, Nutsedge, Yellow: scale 0 to 100 (0 no effect, 100 complete control)
Method in brief: as §2

large (Lg) crabgrass [4] = experiment: Test A preemergence; type: in vivo, Digitaria sanguinalis; settings: for Crabgrass, Large plant response rating: 500 g ai/ha
Method in brief: as §1

pigweed = experiment: Test C postemergence; type: in vivo, Amaranthus retroflexus; settings: for Pigweed plant response rating / Plant response rating, Pigweed: scale 0 to 100 (0 no effect, 100 complete control)
Method in brief: as §2

Italian ryegrass = experiment: Test C postemergence; type: in vivo, Lolium multiflorum; settings: for Ryegrass, Italian plant response rating / Plant response rating, Ryegrass, Italian: scale 0 to 100 (0 no effect, 100 complete control)
Method in brief: as §2

rice = experiment: Test B flooded paddy test; type: in vivo, Oryza sativa; settings: Flood, 250 g ai/ha; 0 to 100 scale where 0 is no effect and 100 is complete control
Method in brief: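 Post-emergence paddy-water application at the 2-leaf stage, with 3 cm flood kept for the whole test. Response was judged visually relative to controls after 13 to 15 greenhouse days, 0 indicating no effect and 100 complete control.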

wild oat = experiment: Test C postemergence; type: in vivo, Avena fatua; settings: for Oat, Wild plant response rating / Plant response rating, Oat, Wild: scale 0 to 100 (0 no effect, 100 complete control)
Method in brief: as §2

large (Lg) crabgrass [5] = experiment: Test A postemergence; type: in vivo, Digitaria sanguinalis
Method in brief: as §1

kochia = experiment: Test C postemergence; type: in vivo, Kochia scoparia; settings: for Kochia plant response rating / Plant response rating, Kochia: scale 0 to 100 (0 no effect, 100 complete control)
Method in brief: as §2

velvetleaf = experiment: Test A postemergence; type: in vivo, Abutilon theophrasti; settings: 0 to 100 scale where 0 is no effect and 100 is complete control
Method in brief: as §1

giant foxtail [6] = experiment: Test A postemergence; type: in vivo, Setaria faberii; settings: 0 to 100 scale where 0 is no effect and 100 is complete control
Method in brief: as §1

[7] = 0 to 100 scale where 0 is no effect and 100 is complete control
[8] = 125 g ai/ha, 0 to 100 scale where 0 is no effect and 100 is complete control
[9] = 500 g ai/ha, 0 to 100 scale where 0 is no effect and 100 is complete control
[10] = 16 g ai/ha, postemergence, 0 is no effect, 100 is complete control
[11] = 31 g ai/ha, postemergence, visual rating, 13 to 15 days
[12] = 125 g ai/ha, postemergence, visual rating
[13] = 0 to 100 scale, 0 no effect, 100 complete control, approx. 10 days
[14] = 500 g ai/ha, 0 to 100 scale, 0 no effect, 100 complete control
[15] = Postemergence, 31 g ai/ha, 13 to 15 days
[16] = Postemergence, 62 g ai/ha, 13 to 15 days

Compound: Clc1cnc(Oc2cccc(Cl)c2-n2cc(I)cn2)nc1 [Compound 181]
- Wheat plant response rating (0 to 100 scale) (wheat; 125 g ai/ha): 0
- Wheat plant response rating (wheat; [7]): 10
- Corn plant response rating (corn; [8]): 40
- Plant response rating, Corn (corn; [9]): 40
- Plant response rating (0 to 100), Morningglory (morningglory [1]; [10]): 15
- Morningglory plant response rating (morningglory [1]; [11]): 20
- Plant response rating, Morningglory (morningglory [1]; [12]): 98
- Plant response rating, Morningglory (morningglory [1]; Postemergence, 62 g ai/ha): 75
- Morningglory plant response rating (0 to 100 scale) (morningglory [2]; 125 g ai/ha): 0
- Morningglory plant response rating (morningglory [2]; [7]): 30
- Foxtail, Giant plant response rating (0 to 100 scale) (giant foxtail [3]; 125 g ai/ha): 90
- Foxtail, Giant plant response rating (giant foxtail [3]; [7]): 100
- Plant response rating (0 to 100), Nutsedge, Yellow (yellow nutsedge; [10]): 0
- Nutsedge, Yellow plant response rating (yellow nutsedge; [11]): 0
- Plant response rating, Nutsedge, Yellow (yellow nutsedge; Postemergence, 62 g ai/ha): 5
- Crabgrass, Large plant response rating (0 to 100 scale) (large (Lg) crabgrass [4]; 125 g ai/ha): 100
- Crabgrass, Large plant response rating (large (Lg) crabgrass [4]; [7]): 100
- Plant response rating (0 to 100), Pigweed (pigweed; [10]): 85
- Pigweed plant response rating (pigweed; [11]): 98
- Plant response rating, Pigweed (pigweed; [12]): 98
- Plant response rating, Pigweed (pigweed; Postemergence, 62 g ai/ha): 85
- Plant response rating (0 to 100), Ryegrass, Italian (Italian ryegrass; [10]): 0
- Ryegrass, Italian plant response rating (Italian ryegrass; [11]): 0
- Plant response rating, Ryegrass, Italian (Italian ryegrass; [12]): 10
- Plant response rating, Ryegrass, Italian (Italian ryegrass; Postemergence, 62 g ai/ha): 5
- Plant response rating, Rice (rice): 0
- Plant response rating (0 to 100), Oat, Wild (wild oat; [10]): 0
- Oat, Wild plant response rating (wild oat; [11]): 5
- Plant response rating, Oat, Wild (wild oat; [12]): 5
- Plant response rating, Oat, Wild (wild oat; Postemergence, 62 g ai/ha): 5
- Crabgrass, Large plant response rating (large (Lg) crabgrass [5]; [8]): 70
- Plant response rating, Crabgrass, Large (large (Lg) crabgrass [5]; [9]): 90
- Plant response rating (0 to 100), Kochia (kochia; [10]): 70
- Kochia plant response rating (kochia; [11]): 100
- Plant response rating, Kochia (kochia; [12]): 100
- Plant response rating, Kochia (kochia; Postemergence, 62 g ai/ha): 100
- Velvetleaf plant response rating (velvetleaf; 125 g ai/ha): 100
- Plant response rating, Velvetleaf (velvetleaf; 500 g ai/ha): 100
- Foxtail, Giant plant response rating (giant foxtail [6]; 125 g ai/ha): 70
- Plant response rating, Foxtail, Giant (giant foxtail [6]; 500 g ai/ha): 90

Compound: N#Cc1cccc(Oc2ncc(Cl)cn2)c1-n1cc(Cl)cn1 [Compound 72]
- Plant response rating, Wheat (wheat; [8]): 20
- Wheat plant response rating (wheat; [13]): 60
- Plant response rating, Corn (corn; [8]): 50
- Plant response rating, Corn (corn; [14]): 60
- Plant response rating (0 to 100), Morningglory (morningglory [1]; 125 g ai/ha, postemergence): 85
- Plant response rating (0 to 100), Morningglory (morningglory [1]; 250 g ai/ha, postemergence): 90
- Plant response rating, Morningglory (morningglory [1]; [15]): 75
- Plant response rating, Morningglory (morningglory [1]; Postemergence, 62 g ai/ha): 75
- Plant response rating, Morningglory (morningglory [2]; [8]): 80
- Morningglory plant response rating (morningglory [2]; [13]): 100
- Plant response rating, Foxtail, Giant (giant foxtail [3]; [8]): 100
- Foxtail, Giant plant response rating (giant foxtail [3]; [13]): 100
- Plant response rating (0 to 100), Nutsedge, Yellow (yellow nutsedge; 125 g ai/ha, postemergence): 0
- Plant response rating (0 to 100), Nutsedge, Yellow (yellow nutsedge; 250 g ai/ha, postemergence): 10
- Plant response rating, Nutsedge, Yellow (yellow nutsedge; [15]): 0
- Plant response rating, Nutsedge, Yellow (yellow nutsedge; Postemergence, 62 g ai/ha): 0
- Plant response rating, Crabgrass, Large (large (Lg) crabgrass [4]; [8]): 100
- Crabgrass, Large plant response rating (large (Lg) crabgrass [4]; [13]): 100
- Plant response rating (0 to 100), Pigweed (pigweed; 125 g ai/ha, postemergence): 85
- Plant response rating (0 to 100), Pigweed (pigweed; 250 g ai/ha, postemergence): 95
- Plant response rating, Pigweed (pigweed; [15]): 70
- Plant response rating, Pigweed (pigweed; Postemergence, 62 g ai/ha): 80
- Plant response rating (0 to 100), Ryegrass, Italian (Italian ryegrass; 125 g ai/ha, postemergence): 10
- Plant response rating (0 to 100), Ryegrass, Italian (Italian ryegrass; 250 g ai/ha, postemergence): 10
- Plant response rating, Ryegrass, Italian (Italian ryegrass; [15]): 5
- Plant response rating, Ryegrass, Italian (Italian ryegrass; Postemergence, 62 g ai/ha): 5
- Plant response rating, Rice (rice): 0
- Plant response rating (0 to 100), Oat, Wild (wild oat; 125 g ai/ha, postemergence): 30
- Plant response rating (0 to 100), Oat, Wild (wild oat; 250 g ai/ha, postemergence): 35
- Plant response rating, Oat, Wild (wild oat; [15]): 5
- Plant response rating, Oat, Wild (wild oat; Postemergence, 62 g ai/ha): 5
- Plant response rating, Crabgrass, Large (large (Lg) crabgrass [5]; [8]): 100
- Plant response rating, Crabgrass, Large (large (Lg) crabgrass [5]; [14]): 100
- Plant response rating (0 to 100), Kochia (kochia; 125 g ai/ha, postemergence): 95
- Plant response rating (0 to 100), Kochia (kochia; 250 g ai/ha, postemergence): 95
- Plant response rating, Kochia (kochia; [15]): 90
- Plant response rating, Kochia (kochia; Postemergence, 62 g ai/ha): 90
- Plant response rating, Velvetleaf (velvetleaf; 125 g ai/ha): 100
- Plant response rating, Velvetleaf (velvetleaf; 500 g ai/ha): 100
- Plant response rating, Foxtail, Giant (giant foxtail [6]; 125 g ai/ha): 90
- Plant response rating, Foxtail, Giant (giant foxtail [6]; 500 g ai/ha): 100

Compound: Clc1cnc(Oc2cccc(Br)c2-n2cc(Cl)cn2)nc1 [Compound 221]
- Wheat plant response rating (0 to 100 scale) (wheat; 125 g ai/ha): 0
- Wheat plant response rating (wheat; [7]): 10
- Corn plant response rating (corn; [8]): 10
- Plant response rating, Corn (corn; [9]): 50
- Plant response rating (0 to 100), Morningglory (morningglory [1]; [10]): 45
- Morningglory plant response rating (morningglory [1]; [11]): 40
- Plant response rating, Morningglory (morningglory [1]; [12]): 55
- Plant response rating, Morningglory (morningglory [1]; [16]): 50
- Morningglory plant response rating (0 to 100 scale) (morningglory [2]; 125 g ai/ha): 0
- Morningglory plant response rating (morningglory [2]; [7]): 10
- Foxtail, Giant plant response rating (0 to 100 scale) (giant foxtail [3]; 125 g ai/ha): 100
- Foxtail, Giant plant response rating (giant foxtail [3]; [7]): 100
- Plant response rating (0 to 100), Nutsedge, Yellow (yellow nutsedge; [10]): 0
- Nutsedge, Yellow plant response rating (yellow nutsedge; [11]): 0
- Plant response rating, Nutsedge, Yellow (yellow nutsedge; [12]): 10
- Plant response rating, Nutsedge, Yellow (yellow nutsedge; [16]): 5
- Crabgrass, Large plant response rating (0 to 100 scale) (large (Lg) crabgrass [4]; 125 g ai/ha): 100
- Crabgrass, Large plant response rating (large (Lg) crabgrass [4]; [7]): 100
- Plant response rating (0 to 100), Pigweed (pigweed; [10]): 60
- Pigweed plant response rating (pigweed; [11]): 75
- Plant response rating, Pigweed (pigweed; [12]): 85
- Plant response rating, Pigweed (pigweed; [16]): 50
- Plant response rating (0 to 100), Ryegrass, Italian (Italian ryegrass; [10]): 0
- Ryegrass, Italian plant response rating (Italian ryegrass; [11]): 0
- Plant response rating, Ryegrass, Italian (Italian ryegrass; [12]): 5
- Plant response rating, Ryegrass, Italian (Italian ryegrass; [16]): 5
- Plant response rating, Rice (rice): 0
- Plant response rating (0 to 100), Oat, Wild (wild oat; [10]): 5
- Oat, Wild plant response rating (wild oat; [11]): 5
- Plant response rating, Oat, Wild (wild oat; [12]): 30
- Plant response rating, Oat, Wild (wild oat; [16]): 10
- Crabgrass, Large plant response rating (large (Lg) crabgrass [5]; [8]): 60
- Plant response rating, Crabgrass, Large (large (Lg) crabgrass [5]; [9]): 100
- Plant response rating (0 to 100), Kochia (kochia; [10]): 90
- Kochia plant response rating (kochia; [11]): 80
- Plant response rating, Kochia (kochia; [12]): 95
- Plant response rating, Kochia (kochia; [16]): 95
- Velvetleaf plant response rating (velvetleaf; 125 g ai/ha): 100
- Plant response rating, Velvetleaf (velvetleaf; 500 g ai/ha): 100
- Foxtail, Giant plant response rating (giant foxtail [6]; 125 g ai/ha): 50
- Plant response rating, Foxtail, Giant (giant foxtail [6]; 500 g ai/ha): 90
